Test [1] addresses PI3Kα (Homo sapiens, UniProt P42336). The test is described as follows: ADP-Glo in vitro lipid kinase assay, PI3Kα. Format: biochemical. Details: Full-length p110α was expressed in a complex with full-length p85α (for biochemistry and HDX-MS); 6xHis followed by TEV protease site (N); made in house; host or cells: Spodoptera frugiperda Sf9 (baculovirus co-infection; plasmids OP831 and OP809). As to the method:
(§1) The effect of 1938 on the in vitro lipid kinase activity of p85α in complex with p110α, p110β or p110δ (further referred to as PI3Kα, PI3Kβ and PI3Kδ) was tested. As a positive control, a bis-phosphorylated phosphopeptide (a PDGF-receptor-derived peptide phosphorylated on Tyr-740 and Tyr-751, hereafter referred to as pY peptide) was used to mimic engagement of the p85α SH2 domains with tyrosine-phosphorylated peptides in membrane-bound receptors and adaptor proteins, known to activate the PI3Kα complex.
Kinase reactions were performed with ADP-Glo kinase assay kit (Promega Corporation). The enzyme, substrate and compounds were diluted in reaction buffer (20 mM HEPES, 50 mM NaCl, 50 mM KCl, 3 mM MgCl2, 1 mM EGTA, 1 mM TCEP, pH 7.4). Final concentrations of PI3Kα and PI3Kδ used were 25 nM and 50 nM for PI3Kβ. Liposomes (5% brain PI(4,5)P2, 20% brain phosphatidylserine, 45% brain phosphatidylethanolamine, 15% brain phosphatidylcholine, 10% cholesterol, 5% sphingomyelin (Avanti Polar Lipids)) were used at a final concentration of 1 mg/ml.
For compound profiling, the reaction mixture contained 2 μl PI3K enzyme, 2 μl compound and/or pY and 2 μl of liposome substrate mixed with ATP. ATP was used at a final concentration of 500 μM for PI3Kα and PI3Kβ and at 200 μM for PI3Kδ, unless otherwise stated. The final DMSO concentration in the assay was 1%. The experiments were performed at room temperature for 3 h using 384 white-polystyrene plates (Corning #3824) before addition of 6 μl of ADP-Glo R1 to terminate the reaction. The plate was incubated for 45 min, followed by addition of 12 μl of ADP-Glo R2 and incubated further for 60 min in the dark. Luminescence was read using a Sense (Hidex) plate reader. […] All analyses were performed using GraphPad Prism 7.
For characterisation of the effects of 1938 on in vitro PI3K enzymology, all reactions were performed at room temperature with 384 white-polystyrene plates (Corning #3574). The final DMSO concentration in the assay was between 0.5%-1.8%. The reaction mixture contained 2 μl PI3K enzyme, 2 μl compound and/or pY and 2 μl of liposome substrate mixed with ATP. ATP was used at a final concentration of 200 μM, unless otherwise stated. The enzyme and compounds were pre-incubated for 10 min prior to addition of substrate. The reaction was allowed to proceed for 45 min at room temperature, before addition of 6 μl of ADP-Glo R1 to terminate the reaction. The plate was incubated for 60 min, followed by addition of 12 μl of ADP-Glo R2 and incubated further for 60 min in the dark. For enzyme kinetic calculations, data was expressed as velocity (pmol of ADP generated/sec). ADP-ATP standard curves were performed according to the manufacturer's instructions, and all analyses were performed using GraphPad Prism 8.
On the technique in general: ADP-Glo turns the ADP formed in a reaction into a luminescent signal.

The target in test [2] is T1, PI3Kβ (Homo sapiens, UniProt P42338).
T1 construct: Full-length p110β/p85α and p110δ/p85α were cloned and expressed in a similar manner; Strep-tag followed by TEV protease site (N, cleaved yes); made in house; host or cells: Spodoptera frugiperda Sf9 (plasmids OP832 and OP809)
Nature of the test: ADP-Glo in vitro lipid kinase assay, PI3Kβ. The test is classed as biochemical. As for the experimental part:
as §1
Kinase reactions were performed with ADP-Glo kinase assay kit (Promega Corporation). The enzyme, substrate and compounds were diluted in reaction buffer (20 mM HEPES, 50 mM NaCl, 50 mM KCl, 3 mM MgCl2, 1 mM EGTA, 1 mM TCEP, pH 7.4). Final concentrations of PI3Kα and PI3Kδ used were 25 nM and 50 nM for PI3Kβ. […]
For compound profiling, the reaction mixture contained 2 μl PI3K enzyme, 2 μl compound and/or pY and 2 μl of liposome substrate mixed with ATP. […] Luminescence was read using a Sense (Hidex) plate reader. […]
For characterisation of the effects of 1938 on in vitro PI3K enzymology, all reactions were performed at room temperature with 384 white-polystyrene plates (Corning #3574). […] For enzyme kinetic calculations, data was expressed as velocity (pmol of ADP generated/sec). […]

Test [3] has as its system mutant PI3Kα (D603K, D603A, 603DCN_AAA605, D603A/F1016S, L1006R, F1016S, L1006R/F1016S). Nature of the test: Activation of binding-pocket mutants of PI3Kα. Format: biochemical. Particulars: all mutants activatable by pY. The source says:
The inventors then performed mutagenesis in attempt to generate 1938-resistant mutants. Based on the crystal structure and SAR data, we made the following mutants: D603K, D603A, 603DCN_AAA605 triple mutant, D603A/F1016S double mutant, L1006R, F1016S, and the L1006R/F1016S double mutant.

Test [4] relates to PI3Kα-WT MEFs. The test is described as follows: Cell number by crystal violet staining in MEFs. The test is classed as cell-based, mouse. Particulars: 72 h. As to the method: MEFs were seeded at 5000 cells per well in 96-well plates in DMEM supplemented with 10% FBS and 1% P/S, and allowed to attach overnight. The next day, cells were serum-starved for 5 h prior to compound addition in fresh serum-free DMEM. After different time points, cells were rapidly washed with distilled H2O before fixed and stained in a solution of 0.5% crystal violet (Sigma-Aldrich cat #C0775) in 20% methanol (v:v) as described (Feoktistova, M. et al. Cold Spring Harb Protoc 2016, pdb prot087379 (2016). Briefly, after 20 min incubation at room temperature on a rocking platform, fixed and stained cells were washed 3 times with distilled H2O and plates air-dried overnight. 200 μl methanol was next added to each well and the plates were incubated at room temperature for 20 min on a bench rocker, followed by measurement of optical density at 570 with a plate reader.

This is an account of results in patent US20250263404A1, “AMINOPYRIDINES AS ACTIVATORS OF PI3 KINASE” (UCL Business Ltd, priority 2021, published 2025).

Chain of PI3Kα (P42336 whole entry, the tested form may be a part): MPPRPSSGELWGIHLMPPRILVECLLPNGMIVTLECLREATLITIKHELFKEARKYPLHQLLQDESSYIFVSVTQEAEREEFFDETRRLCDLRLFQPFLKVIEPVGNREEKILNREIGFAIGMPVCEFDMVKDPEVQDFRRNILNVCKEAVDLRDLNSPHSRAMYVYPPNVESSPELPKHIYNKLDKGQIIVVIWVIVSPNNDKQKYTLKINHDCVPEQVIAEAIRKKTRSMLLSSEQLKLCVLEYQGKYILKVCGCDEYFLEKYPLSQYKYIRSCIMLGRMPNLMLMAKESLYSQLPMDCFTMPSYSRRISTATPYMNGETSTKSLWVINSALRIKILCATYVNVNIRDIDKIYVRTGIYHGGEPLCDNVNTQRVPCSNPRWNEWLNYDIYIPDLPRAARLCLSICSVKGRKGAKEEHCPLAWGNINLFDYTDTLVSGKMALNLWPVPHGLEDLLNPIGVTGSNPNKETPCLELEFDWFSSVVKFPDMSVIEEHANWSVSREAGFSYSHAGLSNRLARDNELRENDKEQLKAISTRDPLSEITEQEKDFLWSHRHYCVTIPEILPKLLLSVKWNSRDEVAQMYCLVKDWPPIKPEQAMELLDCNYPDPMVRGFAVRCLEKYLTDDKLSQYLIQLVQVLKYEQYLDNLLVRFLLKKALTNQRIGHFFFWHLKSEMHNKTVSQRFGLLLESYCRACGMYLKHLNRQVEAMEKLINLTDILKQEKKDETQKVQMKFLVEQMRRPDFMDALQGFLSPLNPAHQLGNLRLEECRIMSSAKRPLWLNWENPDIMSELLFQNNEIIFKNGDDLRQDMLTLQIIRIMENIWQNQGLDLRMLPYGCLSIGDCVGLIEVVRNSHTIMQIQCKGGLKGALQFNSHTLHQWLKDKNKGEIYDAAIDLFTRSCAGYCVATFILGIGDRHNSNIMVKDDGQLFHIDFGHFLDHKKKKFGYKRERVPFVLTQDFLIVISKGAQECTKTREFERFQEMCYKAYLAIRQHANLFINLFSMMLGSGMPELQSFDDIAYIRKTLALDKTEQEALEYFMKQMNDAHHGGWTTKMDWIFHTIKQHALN
Chain of PI3Kα (P27986 whole entry partner, the tested form may be a part): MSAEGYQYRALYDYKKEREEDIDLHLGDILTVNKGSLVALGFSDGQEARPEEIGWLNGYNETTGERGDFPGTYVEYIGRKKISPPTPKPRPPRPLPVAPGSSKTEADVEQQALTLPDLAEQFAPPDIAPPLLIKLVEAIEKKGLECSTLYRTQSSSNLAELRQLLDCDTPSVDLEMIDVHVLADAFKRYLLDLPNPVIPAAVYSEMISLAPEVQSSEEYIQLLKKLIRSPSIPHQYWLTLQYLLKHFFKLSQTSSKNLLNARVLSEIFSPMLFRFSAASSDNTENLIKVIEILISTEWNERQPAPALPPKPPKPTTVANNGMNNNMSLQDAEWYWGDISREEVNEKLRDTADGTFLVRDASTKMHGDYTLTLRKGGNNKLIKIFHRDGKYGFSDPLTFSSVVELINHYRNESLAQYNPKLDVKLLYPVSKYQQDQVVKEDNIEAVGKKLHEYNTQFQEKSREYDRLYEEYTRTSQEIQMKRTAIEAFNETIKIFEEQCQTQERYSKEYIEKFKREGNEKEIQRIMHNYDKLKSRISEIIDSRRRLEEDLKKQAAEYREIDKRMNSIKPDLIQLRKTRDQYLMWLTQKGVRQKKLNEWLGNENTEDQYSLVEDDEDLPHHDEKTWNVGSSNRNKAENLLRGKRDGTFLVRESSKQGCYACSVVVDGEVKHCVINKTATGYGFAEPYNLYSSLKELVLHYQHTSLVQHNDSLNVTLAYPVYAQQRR
T1 sequence (P42338 whole entry, species assumed): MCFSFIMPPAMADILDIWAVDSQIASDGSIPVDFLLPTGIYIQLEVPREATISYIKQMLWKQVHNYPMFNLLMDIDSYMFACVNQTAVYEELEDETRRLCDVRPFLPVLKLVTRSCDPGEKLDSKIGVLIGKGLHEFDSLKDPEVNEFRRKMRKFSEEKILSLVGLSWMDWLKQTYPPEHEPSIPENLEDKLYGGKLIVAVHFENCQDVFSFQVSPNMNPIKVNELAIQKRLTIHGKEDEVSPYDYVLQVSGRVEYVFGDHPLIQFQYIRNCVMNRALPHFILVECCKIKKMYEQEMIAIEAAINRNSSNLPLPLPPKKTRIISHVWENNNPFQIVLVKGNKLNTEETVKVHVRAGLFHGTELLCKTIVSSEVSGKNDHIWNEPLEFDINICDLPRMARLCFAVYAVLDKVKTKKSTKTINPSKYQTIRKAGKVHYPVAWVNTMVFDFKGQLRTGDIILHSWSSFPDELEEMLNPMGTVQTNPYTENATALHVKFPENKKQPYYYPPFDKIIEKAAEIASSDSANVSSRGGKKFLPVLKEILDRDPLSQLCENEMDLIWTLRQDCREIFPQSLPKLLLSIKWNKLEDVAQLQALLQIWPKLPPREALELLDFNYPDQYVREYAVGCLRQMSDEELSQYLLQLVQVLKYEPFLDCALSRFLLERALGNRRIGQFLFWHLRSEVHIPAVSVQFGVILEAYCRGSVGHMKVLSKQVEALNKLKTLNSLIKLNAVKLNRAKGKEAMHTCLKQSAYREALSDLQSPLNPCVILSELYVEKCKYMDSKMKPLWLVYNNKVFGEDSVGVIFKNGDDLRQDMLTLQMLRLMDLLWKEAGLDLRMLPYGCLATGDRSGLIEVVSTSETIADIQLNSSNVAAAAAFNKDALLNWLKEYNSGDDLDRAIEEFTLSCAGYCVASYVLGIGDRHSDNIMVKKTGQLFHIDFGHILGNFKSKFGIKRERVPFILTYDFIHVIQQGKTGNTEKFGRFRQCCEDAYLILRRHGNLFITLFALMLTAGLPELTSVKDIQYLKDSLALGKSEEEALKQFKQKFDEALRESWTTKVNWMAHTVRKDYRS
T1 sequence (P27986 whole entry partner, species assumed): as the sequence (P27986 whole entry partner, the tested form may be a part) above

Consider `CCN1CCN(c2ccc(Nc3cc(Nc4cccc5c4N(C(C)=O)CC5)ccn3)cc2)CC1` [Example 1938], for which the “PI3Kα activation in combination with a saturating concentration of pY” value in test [1] (1938 plus pY) is “synergistic PI3Kα activation”. In addition, in test [1] (ATP titration), the “maximum rate of reaction (Vmax) of PI3Kα” value is on record as “increased” and the “turnover number (Kcat) of PI3Kα” value was “increased”. Also, in test [1] (concentration-dependent), the “effect on in vitro lipid kinase activity of PI3Kα” value is reported as “activate PI3Kα”. In addition, the midpoint of the response in test [1] (in vitro PI3Kα activation), the EC50, lay at 58 ± 28 µM. Besides, the “Max. activity relative to 1938” value in test [1] (relative to 1938) worked out at 100%. In test [1] (relative to pY control), the “Max. activity relative to pY ctrl” value stood at 397 ± 60%. The “effect on in vitro lipid kinase activity of PI3Kβ” value in test [2] is recorded as “not PI3Kβ”. Further, in test [3], the “activation of pocket mutants by 1938” value is reported as “resistant to activation by 1938”. Moreover, the “cell number (crystal violet staining)” value in test [4] is “an increase in cell number”.

As usually defined, the EC50 is the concentration that produces a half-maximal response. Read a low EC50 as a more potent agent.
